# Values quoted from earlier work, collected in patent US20050187278A1, “Treatment or prevention of vascular disorders with Cox-2 inhibitors in combination with cyclic AMP-specific phosphodiesterase inhibitors” (Pharmacia Corporation, priority 2003, published 2005).
# Key:
# PDE4 [1] = tested on: PDE4
# PDE3 = conditions: first of two values given 'respectively' for PDE3 and 4
# PDE4 [2] = conditions: second of two values given 'respectively' for PDE3 and 4
compound,measurement,setting,value
"COc1ccc([C@@H]2CNC(=O)C2)cc1OC1CCCC1 [Compound C6, (4R)-4-[3-(Cyclopentyloxy)-4-methoxyphenyl]pyrrolidin-2-one]",fold more potent than the S-(+) enantiomer,"PDE4 [1]; PDE4 inhibitor rolipram, R-(-) versus S-(+) enantiomer",rolipram; 2-10-fold
"COc1ccc([C@H]2CNC(=O)C2)cc1OC1CCCC1 [Compound C7, (4S)-4-[3-(Cyclopentyloxy)-4-methoxyphenyl]pyrrolidin-2-one]",activity relative to the other enantiomer of the PDE4 inhibitor rolipram,PDE4 [1]; in words,Less active
"COc1cc(-c2ccc(=O)[nH]n2)ccc1OC(F)F [Compound C8, 6-[4-(Difluoromethoxy)-3-methoxyphenyl]-3(2H)-pyridazinone]",IC50,PDE3,500 nM
same,IC50,PDE4 [2],800 nM
